Measurements: patent US20210171598A1, “PEPTIDE HORMONE WITH ONE OR MORE O-GLYCANS” (priority 2017, published 2021)
Like-named read-outs stand apart in the source and are kept apart here. Blank lines part the entries; values can stand above or below the molecule they belong to.

Target: neprilysin (NEP) (Homo sapiens, UniProt P08473)
Assay: In vitro degradation by neprilysin, MALDI-TOF time course
Description: Many peptide hormones are destined for endocrine circulation where they are rapidly degraded with half-lives reaching only a few minutes^6-8.
For enzymatic degradation assays using either NEP or DPP-IV (R&D systems, UK), an enzyme titration was carried out to ensure full degradation within one hour of reaction time.
MALDI-TOF-MS was performed on a Bruker Autoflex instrument (Bruker Daltonik GmbH, Bremen, Germany) by mixing the quenched aliquots with a saturated solution of α-Cyano-4-hydroxycinnamic acid in ACN/H2O/TFA (70:30:0.1) at a ratio 1:1 on a target steel plate and mass-spectra were acquired in linear mode.
Reactions were performed in 50 mM Tris, 0.05% Brij-35, pH 9 (Neprilysin), or 50 mM Tris, 20 mM NaCl, pH 7.5 (IDE) and incubated at 37° C.

Chain of neprilysin (NEP) (P08473 whole entry): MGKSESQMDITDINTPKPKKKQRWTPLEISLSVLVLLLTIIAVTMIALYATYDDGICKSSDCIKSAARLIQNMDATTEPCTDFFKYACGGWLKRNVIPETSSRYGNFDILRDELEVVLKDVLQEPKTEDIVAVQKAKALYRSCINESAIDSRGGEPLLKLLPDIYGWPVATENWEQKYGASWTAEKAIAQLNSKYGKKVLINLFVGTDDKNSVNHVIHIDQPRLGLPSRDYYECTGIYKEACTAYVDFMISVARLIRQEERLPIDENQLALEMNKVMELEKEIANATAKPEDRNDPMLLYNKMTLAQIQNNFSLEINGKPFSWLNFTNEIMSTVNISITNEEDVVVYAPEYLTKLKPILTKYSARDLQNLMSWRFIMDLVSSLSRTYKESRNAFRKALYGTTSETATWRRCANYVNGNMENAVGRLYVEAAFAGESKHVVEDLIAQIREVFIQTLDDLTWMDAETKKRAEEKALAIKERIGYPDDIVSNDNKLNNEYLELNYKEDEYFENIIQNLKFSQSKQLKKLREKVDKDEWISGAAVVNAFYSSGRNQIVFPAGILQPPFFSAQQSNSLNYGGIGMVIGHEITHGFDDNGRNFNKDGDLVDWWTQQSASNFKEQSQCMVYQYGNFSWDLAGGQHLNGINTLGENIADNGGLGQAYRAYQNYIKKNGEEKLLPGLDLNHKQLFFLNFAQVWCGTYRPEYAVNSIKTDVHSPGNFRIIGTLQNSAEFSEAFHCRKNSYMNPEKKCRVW

Molecule: Galanin-Ser55/ST: sialylated Galanin variant
- remained intact / resistant to NEP degradation even after: 24 h
- state after overnight incubation with neprilysin: remained partially intact

Molecule: CC[C@H](C)[C@@H]1NC(=O)[C@H](CCCNC(=N)N)NC(=O)[C@H](CC(=O)O)NC(=O)[C@H](CCSC)NC(=O)[C@H](CCCNC(=N)N)NC(=O)CNC(=O)CNC(=O)[C@H](Cc2ccccc2)NC(=O)[C@@H](NC(=O)[C@H](CO)NC(=O)[C@H](CO)NC(=O)[C@H](CCCNC(=N)N)NC(=O)[C@H](CCCNC(=N)N)NC(=O)[C@H](CC(C)C)NC(=O)[C@@H](N)CO)CSSC[C@@H](C(=O)N[C@@H](CC(N)=O)C(=O)N[C@@H](CO)C(=O)N[C@@H](Cc2ccccc2)C(=O)N[C@@H](CCCNC(=N)N)C(=O)N[C@@H](Cc2ccc(O)cc2)C(=O)O)NC(=O)CNC(=O)[C@H](CC(C)C)NC(=O)CNC(=O)[C@H](CO[C@H]2O[C@H](CO)[C@H](O)[C@H](O)[C@H]2NC(C)=O)NC(=O)[C@H](CCC(N)=O)NC(=O)[C@H](C)NC(=O)CNC1=O [ANP-Ser19/Tn]
- major degradation products remained detectable after incubation with neprilysin (37° C.): 24 h
- residual full length / partially intact peptide detectable after incubation with NEP (37° C., MALDI-TOF): 60 min

Molecule: CC(=O)N[C@H]1[C@@H](O[C@H](C)[C@H](NC(=O)[C@H](Cc2ccccc2)NC(=O)[C@@H](NC(=O)CNC(=O)[C@H](CC(=O)O)NC(=O)[C@H](CO)NC(=O)[C@@H](N)Cc2c[nH]cn2)[C@@H](C)O)C(=O)N[C@@H](CO)C(=O)N[C@@H](CCC(=O)O)C(=O)N[C@@H](CC(C)C)C(=O)N[C@@H](CO)C(=O)N[C@@H](CCCNC(=N)N)C(=O)N[C@@H](CC(C)C)C(=O)N[C@@H](CCCNC(=N)N)C(=O)N[C@@H](CCC(=O)O)C(=O)NCC(=O)N[C@@H](C)C(=O)N[C@@H](CCCNC(=N)N)C(=O)N[C@@H](CC(C)C)C(=O)N[C@@H](CCC(N)=O)C(=O)N[C@@H](CCCNC(=N)N)C(=O)N[C@@H](CC(C)C)C(=O)N[C@@H](CC(C)C)C(=O)N[C@@H](CCC(N)=O)C(=O)NCC(=O)N[C@@H](CC(C)C)C(=O)N[C@H](C(N)=O)C(C)C)O[C@H](CO)[C@H](O)[C@@H]1O [Secretin-Thr7-Tn]
- remained (completely) intact after incubation with NEP (37° C., MALDI-TOF): 60 min

Molecule: Ser23-T: Galanin Ser23 T extended glycoform
- time to complete degradation by NEP: 120 min

Molecule: Ser23-Tn: Galanin Ser23-Tn glycoform
- time to complete degradation by NEP: 120 min

Molecule: CC[C@H](C)[C@H](NC(=O)[C@H](CO)NC(=O)[C@H](CC(N)=O)NC(=O)[C@H](CC(C)C)NC(=O)[C@H](Cc1ccc(O)cc1)NC(=O)[C@H](CCCCN)NC(=O)[C@H](CCCCN)NC(=O)[C@@H](NC(=O)[C@H](C)NC(=O)[C@H](CCSC)NC(=O)[C@H](CCC(N)=O)NC(=O)[C@H](CCCCN)NC(=O)[C@H](CCCNC(=N)N)NC(=O)[C@H](CC(C)C)NC(=O)[C@H](CCCNC(=N)N)NC(=O)[C@@H](NC(=O)[C@H](Cc1ccc(O)cc1)NC(=O)[C@H](CC(N)=O)NC(=O)[C@H](CC(=O)O)NC(=O)[C@@H](NC(=O)[C@H](Cc1ccccc1)NC(=O)[C@@H](NC(=O)[C@H](C)NC(=O)[C@H](CC(=O)O)NC(=O)[C@H](CO)NC(=O)[C@@H](N)Cc1c[nH]cn1)C(C)C)[C@@H](C)O[C@H]1O[C@H](CO)[C@H](O)[C@H](O)[C@H]1NC(C)=O)[C@@H](C)O)C(C)C)C(=O)N[C@@H](CC(C)C)C(=O)N[C@@H](CC(N)=O)C(N)=O [VIP-Thr7/Tn]
- residual full length / partially intact peptide detectable after incubation with NEP (37° C., MALDI-TOF): 15 min

Molecule: CC[C@H](C)[C@H](NC(=O)[C@H](CO)NC(=O)[C@H](CC(N)=O)NC(=O)[C@H](CC(C)C)NC(=O)[C@H](Cc1ccc(O)cc1)NC(=O)[C@H](CCCCN)NC(=O)[C@H](CCCCN)NC(=O)[C@@H](NC(=O)[C@H](C)NC(=O)[C@H](CCSC)NC(=O)[C@H](CCC(N)=O)NC(=O)[C@H](CCCCN)NC(=O)[C@H](CCCN=C(N)N)NC(=O)[C@H](CC(C)C)NC(=O)[C@H](CCCN=C(N)N)NC(=O)[C@@H](NC(=O)[C@H](Cc1ccc(O)cc1)NC(=O)[C@H](CC(N)=O)NC(=O)[C@H](CC(=O)O)NC(=O)[C@@H](NC(=O)[C@H](Cc1ccccc1)NC(=O)[C@@H](NC(=O)[C@H](C)NC(=O)[C@H](CC(=O)O)NC(=O)[C@H](CO)NC(=O)[C@@H](N)Cc1c[nH]cn1)C(C)C)[C@@H](C)O)[C@@H](C)O)C(C)C)C(=O)N[C@@H](CC(C)C)C(=O)N[C@@H](CC(N)=O)C(N)=O [VIP, Vasoactive intestinal peptide, reference compound]
- time to complete degradation by NEP (37° C., MALDI-TOF): 15 min

- time to complete degradation by NEP (37° C., MALDI-TOF): ≤ 60 min
Molecule: CC(C)C[C@H](NC(=O)CNC(=O)[C@H](CCC(N)=O)NC(=O)[C@H](CC(C)C)NC(=O)[C@H](CC(C)C)NC(=O)[C@H](CCCNC(=N)N)NC(=O)[C@H](CCC(N)=O)NC(=O)[C@H](CC(C)C)NC(=O)[C@H](CCCNC(=N)N)NC(=O)[C@H](C)NC(=O)CNC(=O)[C@H](CCC(=O)O)NC(=O)[C@H](CCCNC(=N)N)NC(=O)[C@H](CC(C)C)NC(=O)[C@H](CCCNC(=N)N)NC(=O)[C@H](CO)NC(=O)[C@H](CC(C)C)NC(=O)[C@H](CCC(=O)O)NC(=O)[C@H](CO)NC(=O)[C@@H](NC(=O)[C@H](Cc1ccccc1)NC(=O)[C@@H](NC(=O)CNC(=O)[C@H](CC(=O)O)NC(=O)[C@H](CO)NC(=O)[C@@H](N)Cc1c[nH]cn1)[C@@H](C)O)[C@@H](C)O)C(=O)N[C@H](C(N)=O)C(C)C [Secretin, reference compound]

Molecule: CC[C@H](C)[C@@H]1NC(=O)[C@H](CCCNC(=N)N)NC(=O)[C@H](CC(=O)O)NC(=O)[C@H](CCSC)NC(=O)[C@H](CCCNC(=N)N)NC(=O)CNC(=O)CNC(=O)[C@H](Cc2ccccc2)NC(=O)[C@@H](NC(=O)[C@H](CO)NC(=O)[C@H](CO)NC(=O)[C@H](CCCNC(=N)N)NC(=O)[C@H](CCCNC(=N)N)NC(=O)[C@H](CC(C)C)NC(=O)[C@@H](N)CO)CSSC[C@@H](C(=O)N[C@@H](CC(N)=O)C(=O)N[C@@H](CO[C@H]2O[C@H](CO)[C@H](O)[C@H](O)[C@H]2NC(C)=O)C(=O)N[C@@H](Cc2ccccc2)C(=O)N[C@@H](CCCNC(=N)N)C(=O)N[C@@H](Cc2ccc(O)cc2)C(=O)O)NC(=O)CNC(=O)[C@H](CC(C)C)NC(=O)CNC(=O)[C@H](CO)NC(=O)[C@H](CCC(N)=O)NC(=O)[C@H](C)NC(=O)CNC1=O [ANP-Ser25/Tn]
- residual full length / partially intact peptide detectable after incubation with NEP (37° C., MALDI-TOF): 15 min

Molecule: CC[C@H](C)[C@@H]1NC(=O)[C@H](CCCNC(=N)N)NC(=O)[C@H](CC(=O)O)NC(=O)[C@H](CCSC)NC(=O)[C@H](CCCNC(=N)N)NC(=O)CNC(=O)CNC(=O)[C@H](Cc2ccccc2)NC(=O)[C@@H](NC(=O)[C@H](CO)NC(=O)[C@H](CO)NC(=O)[C@H](CCCNC(=N)N)NC(=O)[C@H](CCCNC(=N)N)NC(=O)[C@H](CC(C)C)NC(=O)[C@@H](N)CO)CSSC[C@@H](C(=O)N[C@@H](CC(N)=O)C(=O)N[C@@H](CO[C@H]2O[C@H](CO)[C@H](O)[C@H](O)[C@H]2NC(C)=O)C(=O)N[C@@H](Cc2ccccc2)C(=O)N[C@@H](CCCNC(=N)N)C(=O)N[C@@H](Cc2ccc(O)cc2)C(=O)O)NC(=O)CNC(=O)[C@H](CC(C)C)NC(=O)CNC(=O)[C@H](CO[C@H]2O[C@H](CO)[C@H](O)[C@H](O)[C@H]2NC(C)=O)NC(=O)[C@H](CCC(N)=O)NC(=O)[C@H](C)NC(=O)CNC1=O [ANP-Ser19+25/Tn]
- major degradation products remained detectable after incubation with neprilysin (37° C.): 24 h
- residual full length / partially intact peptide detectable after incubation with NEP (37° C., MALDI-TOF): 30 min

Molecule: CC[C@H](C)[C@H](NC(=O)[C@H](CO)NC(=O)[C@H](CC(N)=O)NC(=O)[C@H](CC(C)C)NC(=O)[C@H](Cc1ccc(O)cc1)NC(=O)[C@H](CCCCN)NC(=O)[C@H](CCCCN)NC(=O)[C@@H](NC(=O)[C@H](C)NC(=O)[C@H](CCSC)NC(=O)[C@H](CCC(N)=O)NC(=O)[C@H](CCCCN)NC(=O)[C@H](CCCNC(=N)N)NC(=O)[C@H](CC(C)C)NC(=O)[C@H](CCCNC(=N)N)NC(=O)[C@@H](NC(=O)[C@H](Cc1ccc(O)cc1)NC(=O)[C@H](CC(N)=O)NC(=O)[C@H](CC(=O)O)NC(=O)[C@@H](NC(=O)[C@H](Cc1ccccc1)NC(=O)[C@@H](NC(=O)[C@H](C)NC(=O)[C@H](CC(=O)O)NC(=O)[C@H](CO)NC(=O)[C@@H](N)Cc1c[nH]cn1)C(C)C)[C@@H](C)O[C@H]1O[C@H](CO)[C@H](O)[C@H](O[C@@H]2O[C@H](CO)[C@H](O)[C@H](O)[C@H]2O)[C@H]1NC(C)=O)[C@@H](C)O)C(C)C)C(=O)N[C@@H](CC(C)C)C(=O)N[C@@H](CC(N)=O)C(N)=O [VIP-Thr7/T]
- residual full length / partially intact peptide detectable after incubation with NEP (37° C., MALDI-TOF): 30 min
